Laboratory results: patent US8299124B2, “Aqueous intraocular penetration-promoting eye drop” (Senju Pharmaceutical Co., Ltd., priority 2004, dated 2012)

Key:
[1] = tested on: intraocular inflammation after anterior chamber puncture; assay: Medicinal efficacy test in a model rabbit of anterior chamber puncture; format: in vivo, Male Dutch rabbits; settings: after anterior chamber puncture in rabbits
Experimental: The concentration of said medicament in the anterior chamber can be measured by the HPLC method for the anterior aqueous humor collected through anterior chamber puncture, as shown in Experimental Example 1 (Penetration Test of a Medicament in the Aqueous Humor) described below. Male Dutch rabbits (Biotech Co., Ltd) with a body weight of about 2 kg was bred and acclimatized under the condition that the temperature was 23±2° C. and the humidity was 55±10%. On the day of the test, the flare value of anterior chamber in the rabbits was determined by a laser flare cell meter (FC-1000, Kowa Company, Ltd.). […] The eye drops of Formulations 4 to 6 in Table 4 were prepared and used. At 30 minutes before the puncture of the anterior chamber, 1,000 U/kg of heparin (Heparin sodium injection, Ajinomoto Co., Inc.) was administered into the rabbit's ear vein. […] The flare value (photon count/msec) in the anterior chamber was determined 30 minutes after the puncture of anterior chamber using a laser flare cell meter (FC-1000, Kowa Company, Ltd.). […] An inhibition rate of inflammation after the puncture of anterior chamber was calculated according to the following equation. […]

[2] = pH 7.8

| Structure (SMILES) | concentration in the anterior aqueous humor at which the intraocular inflammation can be inhibited by at least not less than about 25% (therapeutically effective concentration) [1] | Octanol-water partition coefficient of 2-amino-3-(4-bromobenzoyl)phenylacetic acid [2] |
| --- | --- | --- |
| Nc1c(CC(=O)O)cccc1C(=O)c1ccc(Br)cc1 [2-Amino-3-(4-bromobenzoyl)phenylacetic acid] | not less than 1.5 ng/mL | – |
| Nc1c(CC(=O)[O-])cccc1C(=O)c1ccc(Br)cc1.Nc1c(CC(=O)[O-])cccc1C(=O)c1ccc(Br)cc1.O.O.O.[Na+].[Na+] [Control, Sodium 2-amino-3-(4-bromobenzoyl)phenylacetate 3/2 hydrate, reference compound] | – | 0.60 |
